Where two headings read alike, the source gives them in different places.
Tests used:
[1] = test system: human lymphocytes CRL-8155; experiment: Cytotoxicity against CRL-8155 cells; conditions: human lymphoblasts; for EC50: read-out: CRL-8155 EC50, concentration required to inhibit growth by 50%; for EC90: read-out: CRL-8155 EC90, concentration required to inhibit growth by 90%
Experimental: The selectivity of each compound for the parasite over each of the two cell lines was calculated.

T. b. brucei = experiment: In vitro antitrypanosomal activity against T. brucei (growth inhibition); format: cell-based, Trypanosoma brucei; conditions: Trypanosoma brucei; for EC90: read-out: T. brucei EC90
Experimental: Primary hits from the screen were further characterized using a dose-response assay format to determine the EC50. In parallel, the cytotoxicities of these compounds were determined against a proliferating human hepatoma cell line (Huh7). […] SI—CC50/EC50). The final set of confirmed T. brucei hits consisted of 1035 inhibitors. […] In vitro antitrypanosomal activities against T. b. rhodesiense (STIB9000) and cytotoxicities against L6 rat myoblast cells were measured following established protocols (Orhan et al., Mar. Drugs 8:47 (2010). […] All wells including negative controls contained a final of 0.4% DMSO. After incubation of the plates at 37° C. for 48 h, the parasite density was determined using the CellTiter-Glo reagent (Promega), a firefly luciferase assay system that measures the amount of cellular ATP present in plate wells.

[2] = Distribution between mouse plasma and brain (brain penetration, ip); format: in vivo; conditions: for Brain/plasma ratio / [compound]Brain / [compound]Plasma: Table 14, mice, single ip dose 5 mg/kg, one hour post-dose; for [compound]Brain / [compound]Plasma: ± SEM of 3 mice (compound 3: 6 mice); for Kp at 1 h / concentration at 1 h: mouse, intraperitoneal, 5 mg/kg; for Kp at 1 h: brain and plasma, read-out: Average brain/plasma ratio
Experimental: For distribution of compounds between mouse plasma and brain, mice (in groups of 3) were injected with test compounds (5 mg/kg ip) and sacrificed at the indicated times for collection of plasma and brain. Compound was dissolved in 0.4 mL of dosing solution (7% Tween 80, 3% ethanol, 5% DMSO, 0.9% saline) for ip injections. The brains were weighed and immediately frozen, then later homogenized in acetonitrile using a Dounce homogenizer. Prior to animal studies, recovery of test compound was carried out by adding a known amount to a mouse brain in the test extraction solvent and performing the homogenization. Compound recovery was determined by liquid chromatography/tandem mass spectrometry analysis relative to a standard compound amount. Blood was taken from the same mice in heparinized capillary tubes (Fisherbrand) for determination of compound concentration in plasma. The concentration of compound in the brain was obtained by dividing the moles of compound in the brain by the brain volume (obtained from the brain weight assuming 1 g is 1 mL) and correcting for the brain vasculature volume of 2.5% by weight.
Brain penetration studies (Table 14) were initially performed upon compounds 1, 2, and 3, but were expanded to include other compounds in order to explore the SAR of brain penetration. Groups of three mice were given single 5 mg/kg ip doses of the test compounds and were sacrificed 1 h post-dose.

human hepatocytes HepG2 = experiment: Cytotoxicity against HepG2 cells; conditions: for EC50: Homo sapiens, HepG2, read-out: HepG2 EC50; for EC90: read-out: HepG2 EC90, concentration required to inhibit growth by 90%, human hepatocytes
Trypanosoma cruzi = experiment: Efficacy against T. cruzi in vitro; format: cell-based; conditions: Trypanosoma cruzi, Table 10; for EC50: read-out: T.cruzi EC50; for EC90: read-out: T.cruzi EC90
[3] = Metabolic stability in mouse liver microsomes; format: in vitro ADME; conditions: Table 12; 37° C., NADPH (1 mM), microsomes 0.5 mg/mL, test compounds 1.5 μM
Experimental: (§1) Metabolic stability was evaluated using liver microsomes derived from mouse and human sources. Microsomal incubations were carried out according to a protocol described previously (Wang et al., Antimicrob. Agents Chemother. 54:2507 (2010)) with modifications. Briefly, substrate stock solutions were prepared in DMSO and DMSO content was kept at 0.5% (v/v) in final incubations. Incubation mixtures ([…]), liver microsomes (0.5 mg/mL) from mouse (pool of 1000, CD-1 male mouse) or human (pool of 50, mixed gender) (XenoTech LLC, Lenexa, Kans.) in a phosphate buffer (100 mM, pH 7.4) containing 3.3 mM MgCl2. After a 5-minute pre-equilibration period at 37° C., reactions (in triplicate) were initiated by adding the NADPH cofactor (1 mM). For NADPH-independent reactions, the cofactor was replaced with water. Aliquots (10 μl) of the reaction mixtures were removed at 0, 15, 30, and 60 minutes and individually mixed with 200 μL of ice-cold acetonitrile containing internal standard. The mixtures were vortex-mixed, and precipitated protein was removed by centrifugation at 2,250×g for 15 min. The supernatant fractions were dried using a 96-well microplate evaporator (Apricot Designs Inc., Covina, Calif.) under N2 at 50° C. and reconstituted with 100 μL 50% methanol containing 0.1% trifluoroacetic acid before UPLC-MS/MS analysis. In vitro half-life (t1/2) was obtained by analyzing the substrate concentration vs. incubation time curve using the one-phase exponential decay model (GraphPad Prism® 5.0, San Diego, Calif.).

[4] = Metabolic stability in human liver microsomes; format: in vitro ADME; conditions: Table 12; for Human microsomes t1/2 / half-life at 1.5 μM: 37° C., NADPH (1 mM), microsomes 0.5 mg/mL, test compounds 1.5 μM; for Human microsomes, percentage of compound remaining: after 60 min (where t1/2 > 60 min); for half-life at 1.5 μM: both sexes, human, liver microsomes, pH 7.4, read-out: Human microsomes t1/2
Experimental: as §1

[5] = Table 7, read-out: T. brucei EC50
[6] = Table 11, read-out: T. b. brucei EC50
[7] = Table 9, read-out: T. brucei EC50
[8] = brain, Table 7, groups of 3 mice, read-out: Average [compound] brain
[9] = plasma, Table 7, groups of 3 mice, read-out: Average [compound] plasma
[10] = Table 12, read-out: T. b. brucei EC50
[11] = Table 8, read-out: T. brucei EC50
[12] = brain, Table 8, groups of 3 mice (compound 3: ± SEM of 6 mice), read-out: Average [compound] brain
[13] = plasma, Table 8, groups of 3 mice (compound 3: ± SEM of 6 mice), read-out: Average [compound] plasma

Structure (SMILES)	EC50 [1] [µM]	EC90 [1] [µM]	EC50 (T. b. brucei; [6]) [µM]	EC50 (T. b. brucei; [7]) [µM]	EC90 (T. b. brucei; Table 9) [µM]	Brain/plasma ratio [2]	[compound]Brain [2] [µM]	[compound]Plasma [2] [µM]	EC50 (human hepatocytes HepG2) [µM]	EC90 (human hepatocytes HepG2) [µM]	melting point [°C]	EC50 (Trypanosoma cruzi) [µM]	EC90 (Trypanosoma cruzi) [µM]	Mouse microsomes t1/2 [3] [min]	Human microsomes t1/2 [4] [min]	EC50 (T. b. brucei; [10]) [µM]	further results
O=C(Nc1ccc2sc(-c3cccc(F)c3F)nc2c1)N1CCCC1 [Compound 5, 2-(2,3-Difluorophenyl)-5-(N-pyrrolidylamido)benzothiazole]	> 50	> 50	0.183	0.183	0.394	1.76 ± 0.032	2.31 ± 0.746	1.3 ± 0.406	> 50	> 50	194 to 195	0.578	0.665	–	–	–	EC50 (T. b. brucei; [5]): 0.183 µM; Kp at 1 h ([2]; Table 7, groups of 3 mice): 1.76 ± 0.055; concentration at 1 h [2, 8]: 2.31 ± 1.29 µM; concentration at 1 h [2, 9]: 1.3 ± 0.703 µM
O=C(Nc1ccc2sc(-c3cccc(F)c3)nc2c1)N1CCCC1 [Compound 6, 2-(3-Fluorophenyl)-5-(N-pyrrolidylamido)benzothiazole]	> 50	> 50	0.158	0.158	0.391	1.01 ± 0.037	2.28 ± 0.532	2.22 ± 0.461	> 50	> 50	232 to 233	0.631	0.697	12	37	0.158	EC50 (T. b. brucei; [5]): 0.158 µM; Kp at 1 h ([2]; Table 7, groups of 3 mice): 1.01 ± 0.064; concentration at 1 h [2, 8]: 2.28 ± 0.92 µM; concentration at 1 h [2, 9]: 2.22 ± 0.798 µM
O=C(Nc1ccc2sc(-c3ccccc3)nc2c1)N1CCCC1 [Compound 7, 2-Phenyl-5-(N-pyrrolidylamido)benzothiazole]	> 50	> 50	0.325	0.325	0.817	1.24 ± 0.157	4.24 ± 0.698	3.403 ± 0.328	> 50	> 50	210 to 211	0.564	0.861	18	30	0.325	EC50 (T. b. brucei; [5]): 0.325 µM; Kp at 1 h ([2]; Table 7, groups of 3 mice): 1.24 ± 0.272; concentration at 1 h [2, 8]: 4.24 ± 1.21 µM; concentration at 1 h [2, 9]: 3.4 ± 0.569 µM
O=C(Nc1ccc2sc(-c3ccc(F)c(F)c3)nc2c1)N1CCCCC1 [Compound 12, 2-(3,4-Difluorophenyl)-5-(N-piperidylamido)benzothiazole]	> 50	> 50	0.223	0.223	0.282	0.510 ± 0.023	1.29 ± 0.156	2.52 ± 0.185	> 50	> 50	232 to 233	0.429	0.912	–	–	–	EC50 (T. b. brucei; [11]): 0.223 µM; Kp at 1 h ([2]; Table 8, groups of 3 mice): 0.51 ± 0.04; concentration at 1 h [2, 12]: 1.29 ± 0.27 µM; concentration at 1 h [2, 13]: 2.52 ± 0.32 µM
O=C(Nc1ccc2sc(-c3ccc(F)c(F)c3)nc2c1)N1CCC(F)CC1 [Compound 13, 2-(3,4-Difluorophenyl)-5-(4-fluoro-N-piperidylamido)benzothiazole]	> 50	> 50	0.341	0.341	0.596	1.01 ± 0.081	2.52 ± 0.248	2.51 ± 0.203	> 50	> 50	231.5 to 232	1.8	1.99	–	–	–	EC50 (T. b. brucei; [11]): 0.341 µM; Kp at 1 h ([2]; Table 8, groups of 3 mice): 1.01 ± 0.14; concentration at 1 h [2, 12]: 2.53 ± 0.43 µM; concentration at 1 h [2, 13]: 2.51 ± 0.352 µM
O=C(Nc1ccc2oc(-c3ccccc3)nc2c1)c1ccccc1 [Compound 15, 5-Benzamido-2-phenylbenzoxazole]	–	–	–	–	–	–	–	–	–	–	–	–	–	17	60	–	EC50 (T. b. brucei; read-out: T. b. brucei EC50): > 10 µM; EC50 (T. b. brucei; read-out: T. brucei EC50): > 10 µM; EC90 (T. b. brucei): > 10 µM
O=C(Nc1ccc2oc(-c3ccccc3)nc2c1)N1CCCCC1 [Compound 16, 2-Phenyl-5-N-piperidylamidobenzoxazole]	–	–	–	2.8	9.3	–	–	–	–	–	207 to 209	–	–	11	–	2.8	Human microsomes, percentage of compound remaining [4]: 77%; half-life at 1.5 μM [4]: > 60 min
O=C(Nc1ccc2sc(-c3ccccc3)nc2c1)c1ccccc1 [Compound 17, 5-Benzamido-2-phenylbenzothiazole]	–	–	–	2.38	7.74	–	–	–	–	–	–	–	–	50	–	2.38	Human microsomes, percentage of compound remaining [4]: 53%; half-life at 1.5 μM [4]: > 60 min
O=C(Nc1ccc2sc(-c3ccccc3)nc2c1)N1CCCCC1 [Compound 23, 2-Phenyl-5-(N-piperidylamido)benzothiazole]	> 50	> 50	0.366	0.366	0.809	–	–	–	> 50	> 50	230 to 232	0.826	1.07	17	–	0.366	Human microsomes, percentage of compound remaining [4]: 62%; half-life at 1.5 μM [4]: > 60 min
O=C(Nc1ccc2sc(-c3cccc(F)c3)nc2c1)N1CCCCC1 [Compound 29, 2-(3-Fluorophenyl)-5-(N-piperidylamido)benzothiazole]	> 50	> 50	0.174	0.174	0.602	–	–	–	> 50	> 50	216 to 217	0.32	0.503	11	8.9	0.174	–
O=C(Nc1ccc2sc(-c3ccccc3F)nc2c1)N1CCCCC1 [Compound 33, 2-(2-Fluorophenyl)-5-(N-piperidylamido)benzothiazole]	> 50	> 50	0.935	0.935	1.14	–	–	–	> 50	> 50	213 to 215	0.843	1.12	–	–	–	–
